Data as given in article PMC6736568, “Discovery of Novel Anti-cryptosporidial Activities From Natural Products by in vitro High-Throughput Phenotypic Screening” (Frontiers in Microbiology, 2019).
Where a name gives a salt, the structure may show the parent alone. Read-outs that look alike come from different tables or passages of the source.

Experiments:
[1] = system: Cryptosporidium parvum; assay: qRT-PCR assay of the growth of C. parvum in vitro in HCT-8 host cells (primary and secondary screening, EC50); format: cell-based; details: for inhibition at 10 µM / inhibition at 3.3 µM: Cryptosporidium parvum, HCT-8; for inhibition at 10 µM: read-out: Inhibition (%); for inhibition at 3.3 µM: secondary screening at 3.3 uM, read-out: % Inhibition (3.3 uM)
[2] = system: HCT-8 host cells (Hs18S)
[3] = in vitro
[4] = primary screening at 10 uM, treated vs control

| Hs18S ΔCT ([2]; human, 41 h, 10 μM) | SMILES | inhibition at 10 µM ([1]; primary screening at 10 uM) | Hs18S ΔCT [2, 4] | cytotoxicity at 10 µM [3] | cytotoxicity at 41 h, 10 µM ([3]; human) | also measured |
| --- | --- | --- | --- | --- | --- | --- |
|  | C=C(C)[C@@H]1CC=C(C(=O)O)CC1 [PERILLIC ACID (-)] | -16.2% | 0.14 | 8.9% |  |  |
| 0.65 | CC(=O)O[C@H]1C(=O)[C@@]2(C)[C@H]([C@H](OC(=O)c3ccccc3)[C@]3(O)C[C@H](OC(=O)[C@H](O)[C@@H](NC(=O)c4ccccc4)c4ccccc4)C(C)=C1C3(C)C)[C@]1(OC(C)=O)CO[C@@H]1C[C@@H]2O [PACLITAXEL] | 86.6% |  |  | 36.1% | inhibition at 3.3 µM [1]: 93% |
| 0.26 | COc1ccc(-c2cc(=O)c3c(OC)c(OC)c(OC)c(OC)c3o2)cc1OC [NOBILETIN] | 94.6% |  |  | 16.2% | inhibition at 3.3 µM [1]: -25% |
|  | CC[C@H]1CN2CCc3cc(OC)c(OC)cc3[C@@H]2C[C@@H]1C[C@H]1NCCc2cc(OC)c(OC)cc21 [EMETINE DIHYDROCHLORIDE] | 97.3% | 1.41 |  |  | inhibition at 3.3 µM [1]: 95%; cytotoxicity at 41 h, 10 µM [3]: 62.4% |
| 0.03 | C[n+]1cccc(C(=O)[O-])c1 [TRIGONELLINE] | -29.9% |  |  | 2.2% |  |
| -0.11 | C[C@@H]1CC[C@H]2C(C)(C)[C@H]3C[C@@]12CC[C@@]3(C)O [CEDROL] | -4.53% |  |  | -7.7% |  |
| 0.36 | CC(C)=CCCC1(C)C=Cc2c(O)c3c(c(CC=C(C)C)c2O1)OC12C(=CCCC1C(C)(C)O[C@@]2(C/C=C(\C)C(=O)O)C(=O)O)C3=O (some centres unmarked) [GARCINOLIC ACID] | -51.3% |  |  | 22% |  |
|  | C=C(C)c1cc2cc(C(C)=O)c(O)cc2o1 [EUPARIN] | 19% | 0.23 | 14.6% |  |  |
|  | COc1ccc2c(c1)OCC(Cc1ccc(OC)c(OC)c1)C2=O (centres unmarked) | 20.2% | 0.04 | 2.4% |  |  |
|  | COc1ccc2c(c1)OC/C(=C/c1ccc(OC)c(OC)c1)C2=O [SAPPANONE A TRIMETHYL ETHER] | 3.07% | 0.23 | 14.7% |  |  |
| -0.21 | CC(=O)Oc1c(C)c(C)c2c(c1C)CCC(C)(CCCC(C)CCCC(C)CCCC(C)C)O2 (stereo not drawn) [alpha-TOCHOPHERYL ACETATE] | -13.6% |  |  | -15.8% |  |
| 0.03 | Cn1cnc2c1c(=O)[nH]c(=O)n2C [THEOBROMINE] | -18.1% |  |  | 2.2% |  |
|  | O=C1C=CC(=O)c2c(O)cccc21 [JUGLONE] | -17.7% |  | 11.2% |  | Hs18S ΔCT [2]: 0.17 |
|  | CC1CCC23CCC4(C)C5(C)CCC6C(C)(C)C(=O)CCC6(C)C5CCC4(OC2=O)C3C1C (centres unmarked) [3-OXOURSAN (28-13)OLIDE] |  | 6.62 | 99% |  |  |
|  | CC(=O)O[C@H]1CC[C@@]2(C)[C@H](CC[C@@H]3[C@@H]2CC[C@]2(C)[C@@H](C4=CC(=O)OC4)[C@@H](OC(C)=O)C[C@]32O)C1 [GITOXIGENIN DIACETATE] |  | 8.90 | 99.8% |  |  |
|  | C[C@H]1O[C@@H](O[C@H]2[C@@H](O)C[C@H](O[C@H]3[C@@H](O)C[C@H](O[C@H]4CC[C@@]5(C)[C@H](CC[C@@H]6[C@@H]5CC[C@]5(C)[C@@H](C7=CC(=O)OC7)CC[C@]65O)C4)O[C@@H]3C)O[C@@H]2C)C[C@H](O)[C@@H]1O [DIGITOXIN] |  | 13.47 | 100% |  |  |

| Hs18S ΔCT ([2]; human, 41 h, 10 μM) | SMILES | inhibition at 10 µM ([1]; primary screening at 10 uM) | Hs18S ΔCT [2, 4] | cytotoxicity at 10 µM [3] | cytotoxicity at 41 h, 10 µM ([3]; human) | also measured |
| --- | --- | --- | --- | --- | --- | --- |
|  | CC(=O)O[C@H]1C[C@H](O[C@H]2[C@@H](O)C[C@H](O[C@H]3[C@@H](O)C[C@H](O[C@H]4CC[C@@]5(C)[C@H](CC[C@@H]6[C@@H]5C[C@@H](O)[C@]5(C)[C@@H](C7=CC(=O)OC7)CC[C@]65O)C4)O[C@@H]3C)O[C@@H]2C)O[C@H](C)[C@H]1O[C@@H]1O[C@H](CO)[C@@H](O)[C@H](O)[C@H]1O [LANATOSIDE C] |  | 8.93 | 99.8% |  |  |
|  | CC1=C(O)C(=O)C=C2C1=CC=C1[C@@]2(C)CC[C@@]2(C)[C@@H]3C[C@](C)(C(=O)O)CC[C@]3(C)CC[C@]12C [CELASTROL] |  | 3.82 | 92.9% |  |  |
|  | C[C@H]1O[C@@H](O[C@H]2[C@@H](O)C[C@H](O[C@H]3[C@@H](O)C[C@H](O[C@H]4CC[C@@]5(C)[C@H](CC[C@@H]6[C@@H]5C[C@@H](O)[C@]5(C)[C@@H](C7=CC(=O)OC7)CC[C@]65O)C4)O[C@@H]3C)O[C@@H]2C)C[C@H](O)[C@@H]1O [DIGOXIN] |  | 14.32 | 100% |  |  |
|  | C[C@@H]1O[C@@H](O[C@H]2C[C@@H](O)[C@]3(CO)[C@H]4[C@H](O)C[C@]5(C)[C@@H](C6=CC(=O)OC6)CC[C@]5(O)[C@@H]4CC[C@]3(O)C2)[C@H](O)[C@H](O)[C@H]1O [OUABAIN] |  | 11.65 |  |  | cytotoxicity at 41 h, 10 µM [3]: 100% |
|  | C[C@@H]1O[C@@H](O[C@@H]2C=C3CC[C@@H]4[C@H](CC[C@]5(C)[C@@H](c6ccc(=O)oc6)CC[C@]45O)[C@@]3(C)CC2)[C@H](O)[C@H](O)[C@H]1O [PROSCILLARIDIN] |  | 13.28 | 100% |  |  |
|  | COc1cc([C@@H]2c3cc4c(cc3[C@H](O)[C@H]3COC(=O)[C@H]23)OCO4)cc(OC)c1OC [PODOFILOX] |  | 5.42 |  |  | cytotoxicity at 41 h, 10 µM [3]: 97.7% |
|  | C[C@]12CC[C@H]3[C@@H](CC[C@]4(O)C[C@@H](O)CC[C@]34C=O)[C@@]1(O)CC[C@@H]2C1=CC(=O)OC1 [STROPHANTHIDIN] |  | 11.98 |  | 100% |  |
|  | C[C@@]12C(=O)OC(=O)[C@]1(C)[C@H]1CC[C@@H]2O1 [CANTHARIDIN] |  | 7.39 | 99.4% |  |  |
|  | CO[C@H]1[C@H](O)[C@H](O[C@H]2CC[C@@]3(C=O)[C@H](CC[C@@H]4[C@@H]3CC[C@]3(C)[C@@H](C5=CC(=O)OC5)CC[C@]43O)C2)O[C@@H](C)[C@@H]1O [PERUVOSIDE] |  | 10.85 | 99.9% |  |  |
| 3.65 | Cc1cc(O)c2c(c1O)C(=O)c1c(O)cc(C)c(O)c1C2=O [1,4,5,8-TETRAHYDROXY-2,6-DIMETHYLANTHROQUINONE] |  |  |  | 92% |  |
| 0.04 | NCCCC(=O)O [gamma-AMINOBUTYRIC ACID] |  |  |  | 2.6% |  |
| 6.42 | CC(C)=CCc1c2c(c3occ(-c4ccc(O)c(O)c4)c(=O)c3c1O)C=CC(C)(C)O2 [POMIFERIN] |  |  |  | 98.8% |  |
|  | C[C@@H]1O[C@@H](O[C@H]2CC[C@]3(C=O)[C@H]4CC[C@]5(C)[C@@H](C6=CC(=O)OC6)CC[C@]5(O)[C@@H]4CC[C@]3(O)C2)[C@H](O)[C@H](O)[C@H]1O [CONVALLATOXIN] |  | 10.84 | 99.9% |  |  |
| 0.06 | O=C(O)C1=C[C@@H](O)[C@@H](O)[C@H](O)C1 [SHIKIMIC ACID] | 10.3% |  |  |  |  |
|  | Cc1c[nH]c2ccccc12 [SKATOLE] |  | 0.30 |  |  | Inhibition (%) ([1]; primary screening at 10 uM): 25.24%; Cytotoxicity (%) ([2]; primary screening at 10 uM, from Hs18S ΔCT): 18.5% |

| SMILES | Hs18S ΔCT ([2]; human, 41 h, 10 μM) | inhibition at 10 µM ([1]; primary screening at 10 uM) | Hs18S ΔCT [2, 4] | cytotoxicity at 10 µM [3] | cytotoxicity at 41 h, 10 µM ([3]; human) | also measured |
| --- | --- | --- | --- | --- | --- | --- |
| CC(C)=CCC[C@]1(C)C=Cc2c(O)c3c(c(CC=C(C)C)c2O1)O[C@]12C(=C[C@@H]4C[C@H]1C(C)(C)O[C@@]2(C/C=C(/C)C(=O)O)C4=O)C3=O [GAMBOGIC ACID] | 10.02 |  |  |  | 99.9% |  |
| CC(=O)O[C@@H]1C[C@@]2(C)[C@H](c3ccoc3)C[C@H]3O[C@]32[C@]2(C)C(=O)C(O)=C3C(C)(C)C(=O)C=C[C@]3(C)[C@@H]12 [ANTHOTHECOL] | 6.51 |  |  |  | 98.9% |  |
